# Test results as given in EP0067666A1, “Salts of antimicrobial naphthyridine and quinoline compounds and their production” (priority 1981, dated 1982).
# Legend:
# Entero cloacae MA 2646 = test: Antibacterial activity, MIC; format: cell-based
# E. coli Vogel = test: Antibacterial activity, MIC; format: cell-based
# Klebs. pneumoniae MGH-2 = test: Antibacterial activity, MIC; format: cell-based
# Proteus retgeri M 1771 = test: Antibacterial activity, MIC; format: cell-based
# Pseudo. aeruginosa UI-18 = test: Antibacterial activity, MIC; format: cell-based
# Staph. aureus H 228 = test: Antibacterial activity, MIC; format: cell-based
# Staph. aureus UC-76 = test: Antibacterial activity, MIC; format: cell-based
# Strep. faecalis MGH-2 = test: Antibacterial activity, MIC; format: cell-based
# Strep. pneumoniae SV-1 = test: Antibacterial activity, MIC; format: cell-based
# Strep. pyogenes C-203 = test: Antibacterial activity, MIC; format: cell-based
# [1] = tested on: Klebsiella pneumoniae MGH-2; test: Acute mouse protection test; format: in vivo; conditions: single dose given at time of challenge; for Single sc Dose PD50 (mg/kg) ± 95% Confidence Limits Klebsiella pneumoniae MGH-2: subcutaneous
# Escherichia coli Vogel = test: Acute mouse protection test; format: in vivo; conditions: single dose given at time of challenge; for Single sc Dose PD50 (mg/kg) ± 95% Confidence Limits Escherichia coli Vogel: subcutaneous
# [2] = tested on: Staphylococcus aureus UC-76; test: Acute mouse protection test; format: in vivo; conditions: single dose given at time of challenge, compound B series
# [3] = Solubility screening procedure (concentration and pH of filtrate); format: physicochemical
# Experimental: (§1) The amount of Compound A or Compound B calculated for selected concentrations was weighed into volumetric flasks. Equimolar quantities of combining acid, amino acid, or base were added either as solutions or in dry form. Deionized water was added to bring the volume to that desired for the preselected concentrations.. All flasks were sonicated for 15 minutes, allowed to stand at room temperature for 30 minutes, then filtered through a fine frit sintered glass funnel. After the pH of the filtrate was taken, suitable dilutions were made into 0.1N HCl for ultraviolet spectrophotometric assay of concentration. Ten fold dilutions of the original filtrates were made into standard I.V. solutions.
# [4] = Solubility of lyophilized and crystalline solids; format: physicochemical; conditions: CPD B salt
# [5] = 10x dilution of soluble forms with standard IV solutions (pH, precipitate); format: physicochemical
# Experimental: as §1
structure (smiles),measurement,setting,value
CCn1cc(C(=O)O)c(=O)c2cc(F)c(N3CCNCC3)cc21 [A Glutamate],MIC µg/ml Entero cloacae MA 2646,Entero cloacae MA 2646; based on content of compound A,<0.1 µg/mL
same,MIC µg/ml E. coli Vogel,E. coli Vogel; based on content of compound A,<0.1 µg/mL
same,MIC µg/ml Klebs. pneumoniae MGH-2,Klebs. pneumoniae MGH-2; based on content of compound A,0.1 µg/mL
same,MIC µg/ml Proteus retgeri M 1771,Proteus retgeri M 1771; based on content of compound A,0.1 µg/mL
same,MIC µg/ml Pseudo. aeruginosa UI-18,Pseudo. aeruginosa UI-18; based on content of compound A,0.1 µg/mL
same,MIC µg/ml Staph. aureus H 228,Staph. aureus H 228; based on content of compound A,1.6 µg/mL
same,MIC µg/ml Staph. aureus UC-76,Staph. aureus UC-76; based on content of compound A,<0.1 µg/mL
same,MIC µg/ml Strep. faecalis MGH-2,Strep. faecalis MGH-2; based on content of compound A,1.6 µg/mL
same,MIC µg/ml Strep. pneumoniae SV-1,Strep. pneumoniae SV-1; based on content of compound A,1.6 µg/mL
same,MIC µg/ml Strep. pyogenes C-203,Strep. pyogenes C-203; based on content of compound A,0.8 µg/mL
CCn1cc(C(=O)O)c(=O)c2cc(F)c(N3CCNCC3)cc21 [A Gluconate],MIC µg/ml Entero cloacae MA 2646,Entero cloacae MA 2646; based on content of compound A,0.2 µg/mL
same,MIC µg/ml E. coli Vogel,E. coli Vogel; based on content of compound A,<0.1 µg/mL
same,MIC µg/ml Klebs. pneumoniae MGH-2,Klebs. pneumoniae MGH-2; based on content of compound A,0.2 µg/mL
same,MIC µg/ml Proteus retgeri M 1771,Proteus retgeri M 1771; based on content of compound A,<0.1 µg/mL
same,MIC µg/ml Pseudo. aeruginosa UI-18,Pseudo. aeruginosa UI-18; based on content of compound A,0.2 µg/mL
same,MIC µg/ml Staph. aureus H 228,Staph. aureus H 228; based on content of compound A,1.6 µg/mL
same,MIC µg/ml Staph. aureus UC-76,Staph. aureus UC-76; based on content of compound A,0.2 µg/mL
same,MIC µg/ml Strep. faecalis MGH-2,Strep. faecalis MGH-2; based on content of compound A,0.8 µg/mL
same,MIC µg/ml Strep. pneumoniae SV-1,Strep. pneumoniae SV-1; based on content of compound A,1.6 µg/mL
same,MIC µg/ml Strep. pyogenes C-203,Strep. pyogenes C-203; based on content of compound A,0.8 µg/mL
same,Single po Dose PD50 (mg/kg) ± 95% Confidence Limits Klebsiella pneumoniae MGH-2,"[1]; oral, compound A series",13 ± 6 mg/kg
same,Single sc Dose PD50 (mg/kg) ± 95% Confidence Limits Klebsiella pneumoniae MGH-2,[1]; compound A series,1.4 ± 0.3 mg/kg
same,Single po Dose PD50 (mg/kg) ± 95% Confidence Limits Escherichia coli Vogel,Escherichia coli Vogel; compound A series,3.9 ± 0.9 mg/kg
same,Single sc Dose PD50 (mg/kg) ± 95% Confidence Limits Escherichia coli Vogel,Escherichia coli Vogel; compound A series,0.5 ± 0.1 mg/kg
CCn1cc(C(=O)O)c(=O)c2cc(F)c(N3CCNCC3)nc21 [B Glutamate],MIC µg/ml Entero cloacae MA 2646,Entero cloacae MA 2646; based on content of compound B,0.2 µg/mL
same,MIC µg/ml E. coli Vogel,E. coli Vogel; based on content of compound B,<0.1 µg/mL
same,MIC µg/ml Klebs. pneumoniae MGH-2,Klebs. pneumoniae MGH-2; based on content of compound B,0.2 µg/mL
same,MIC µg/ml Proteus retgeri M 1771,Proteus retgeri M 1771; based on content of compound B,0.1 µg/mL
same,MIC µg/ml Pseudo. aeruginosa UI-18,Pseudo. aeruginosa UI-18; based on content of compound B,0.2 µg/mL
same,MIC µg/ml Staph. aureus H 228,Staph. aureus H 228; based on content of compound B,1.6 µg/mL
same,MIC µg/ml Staph. aureus UC-76,Staph. aureus UC-76; based on content of compound B,<0.1 µg/mL
same,MIC µg/ml Strep. faecalis MGH-2,Strep. faecalis MGH-2; based on content of compound B,3.1 µg/mL
same,MIC µg/ml Strep. pneumoniae SV-1,Strep. pneumoniae SV-1; based on content of compound B,3.1 µg/mL
same,MIC µg/ml Strep. pyogenes C-203,Strep. pyogenes C-203; based on content of compound B,6.3 µg/mL
same,Single sc Dose PD50 (mg/kg) ± 95% Confidence Limits Klebsiella pneumoniae MGH-2,[1]; compound B series,1.9 ± 0.9 mg/kg
same,Single po Dose PD50 (mg/kg) ± 95% Confidence Limits Escherichia coli Vogel,Escherichia coli Vogel; compound B series,2.9 ± 1.0 mg/kg
same,Single sc Dose PD50 (mg/kg) ± 95% Confidence Limits Escherichia coli Vogel,Escherichia coli Vogel; compound B series,1.6 ± 0.6 mg/kg
same,Single po Dose PD50 (mg/kg) ± 95% Confidence Limits Staphylococcus aureus UC-76,[2]; oral,12.0 ± 3.0 mg/kg
same,Single sc Dose PD50 (mg/kg) ± 95% Confidence Limits Staphylococcus aureus UC-76,[2]; subcutaneous,2.8 ± 1.0 mg/kg
CCn1cc(C(=O)O)c(=O)c2cc(F)c(N3CCNCC3)cc21 [A Aspartate],MIC µg/ml Entero cloacae MA 2646,Entero cloacae MA 2646; based on content of compound A,0.1 µg/mL
same,MIC µg/ml E. coli Vogel,E. coli Vogel; based on content of compound A,<0.1 µg/mL
same,MIC µg/ml Klebs. pneumoniae MGH-2,Klebs. pneumoniae MGH-2; based on content of compound A,0.2 µg/mL
same,MIC µg/ml Proteus retgeri M 1771,Proteus retgeri M 1771; based on content of compound A,<0.1 µg/mL
same,MIC µg/ml Pseudo. aeruginosa UI-18,Pseudo. aeruginosa UI-18; based on content of compound A,<0.1 µg/mL
same,MIC µg/ml Staph. aureus H 228,Staph. aureus H 228; based on content of compound A,0.8 µg/mL
same,MIC µg/ml Staph. aureus UC-76,Staph. aureus UC-76; based on content of compound A,<0.1 µg/mL
same,MIC µg/ml Strep. faecalis MGH-2,Strep. faecalis MGH-2; based on content of compound A,1.6 µg/mL
same,MIC µg/ml Strep. pneumoniae SV-1,Strep. pneumoniae SV-1; based on content of compound A,1.6 µg/mL
same,MIC µg/ml Strep. pyogenes C-203,Strep. pyogenes C-203; based on content of compound A,0.8 µg/mL
CCn1cc(C(=O)O)c(=O)c2cc(F)c(N3CCNCC3)nc21 [B Isethionic],Conc. of CPD B,"[3]; compound B + equimolar acid, amino acid or base in deionized water, room temperature, filtrate, UV assay",220000 µg/mL
same,pH of Solution,"[3]; pH of the filtrate, CPD B solutions",1.01
same,pH of Solution Cryst.,[4]; crystalline solid,2.84
same,pH of Solution Lyo.,[4]; lyophilized solid,1.4
same,Solution 2 pH dil,[5]; concentrated Cpd B solution (154-221 mg/ml) diluted 10x with 5% Dextrose,2.35
same,Solution 3 pH dil,[5]; concentrated Cpd B solution (154-221 mg/ml) diluted 10x with 5% Dextrose + 0.9% NaCl,2.14
same,Solution 4 pH dil,[5]; concentrated Cpd B solution (154-221 mg/ml) diluted 10x with Lactated Ringer's Solution,3.95
same,Solution 1 pH dil,[5]; concentrated Cpd B solution (155-221 mg/ml) diluted 10x with 0.9% NaCl,2.08
same,Solution 1 ppt 4 hr,"[5]; concentrated Cpd B solution (155-221 mg/ml) diluted 10x with 0.9% NaCl, precipitate at 4 hr",no
same,Solution 1 ppt 24 hr,"[5]; concentrated Cpd B solution (155-221 mg/ml) diluted 10x with 0.9% NaCl, precipitate at 24 hr",yes
same,Solution 3 ppt 24 hr,"[5]; concentrated Cpd B solution diluted 10x with 5% Dextrose + 0.9% NaCl, precipitate at 24 hr",yes
same,Solution 2 ppt 24 hr,"[5]; concentrated Cpd B solution diluted 10x with 5% Dextrose, precipitate at 24 hr",no
same,Solution 4 ppt 24 hr,"[5]; concentrated Cpd B solution diluted 10x with Lactated Ringer's Solution, precipitate at 24 hr",slight
same,Solution 1 pH dil,[5]; low-concentration Cpd B solution (26.2-52 mg/ml) diluted 10x with 0.9% NaCl,3.05
same,Solution 1 ppt 24 hr,"[5]; low-concentration Cpd B solution (26.2-52 mg/ml) diluted 10x with 0.9% NaCl, precipitate at 24 hr",no
same,pH of Solut.,[5]; separate undiluted concentrated Cpd B solution used for Solutions 2-4 only,1.40
same,Concen. of Cpd B,[5]; separate undiluted concentrated solution used for Solutions 2-4 only,196000 µg/mL
same,pH of Solut.,[5]; undiluted concentrated Cpd B solution used for the Solution 1 dilution,1.01
same,Concen. of Cpd B,[5]; undiluted concentrated solution (at least 155 mg/ml) used for the Solution 1 dilution (for most salts for all four solutions),220000 µg/mL
same,pH of Solut.,[5]; undiluted low-concentration Cpd B solution (26.2-52 mg/ml),2.16
same,Concen. of Cpd B,"[5]; undiluted low-concentration solution (26.2-52 mg/ml), diluted with Solution 1 only",48800 µg/mL
